The source made the active and inactive calls. The calls are words filed in the database; no cut-off is given here.
How the values were obtained:
[1] = molecular target: T1, Aldo-keto reductase family 1 member C1 (Homo sapiens) (UniProt Q04828); experiment: Inhibition of human recombinant GST-tagged AKR1C1 expressed in Escherichia coli BL21 at 100 uM
T1 sequence (whole entry): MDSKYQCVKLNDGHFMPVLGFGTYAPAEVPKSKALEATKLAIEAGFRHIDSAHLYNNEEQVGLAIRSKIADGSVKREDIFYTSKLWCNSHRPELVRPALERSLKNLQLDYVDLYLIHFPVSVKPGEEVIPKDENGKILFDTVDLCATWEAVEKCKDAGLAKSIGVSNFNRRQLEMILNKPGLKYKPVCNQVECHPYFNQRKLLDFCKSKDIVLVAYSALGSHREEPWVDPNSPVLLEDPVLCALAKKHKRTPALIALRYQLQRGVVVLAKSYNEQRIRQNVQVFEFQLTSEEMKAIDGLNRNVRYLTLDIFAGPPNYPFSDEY

[2] = molecular target: T2, Aldo-keto reductase family 1 member C1 (Homo sapiens, UniProt Q04828); experiment: Inhibition of human recombinant GST-tagged AKR1C1 expressed in Escherichia coli BL21
T2 sequence (Q04828 whole entry): T1 sequence (whole entry)

[3] = molecular target: T3, Aldo-keto reductase family 1 member C3 (Homo sapiens) (UniProt P42330); experiment: Inhibition of human recombinant GST-tagged AKR1C3 expressed in Escherichia coli BL21 at 100 uM
T3 sequence (whole entry): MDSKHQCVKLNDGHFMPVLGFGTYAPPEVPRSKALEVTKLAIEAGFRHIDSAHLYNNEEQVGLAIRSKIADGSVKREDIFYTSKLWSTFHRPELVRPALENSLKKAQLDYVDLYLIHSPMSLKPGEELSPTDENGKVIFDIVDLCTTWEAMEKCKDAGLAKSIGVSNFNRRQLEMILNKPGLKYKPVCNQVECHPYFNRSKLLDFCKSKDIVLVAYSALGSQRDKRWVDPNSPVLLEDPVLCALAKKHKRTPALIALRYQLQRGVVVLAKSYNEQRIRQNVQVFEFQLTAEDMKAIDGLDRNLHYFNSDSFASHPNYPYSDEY

[4] = molecular target: T4, Aldo-keto reductase family 1 member C3 (Homo sapiens, UniProt P42330); experiment: Inhibition of human recombinant GST-tagged AKR1C3 expressed in Escherichia coli BL21
T4 sequence (P42330 whole entry): T3 sequence (whole entry)

[5] = Solubility of the compound; assay type: physicochemical
[6] = molecular target: T1, Aldo-keto reductase family 1 member C1 (Homo sapiens); experiment: Inhibition of human recombinant GST-tagged AKR1C1 expressed in Escherichia coli BL21 at 50 uM
[7] = molecular target: T3, Aldo-keto reductase family 1 member C3 (Homo sapiens); experiment: Inhibition of human recombinant GST-tagged AKR1C3 expressed in Escherichia coli BL21 at 50 uM
[8] = molecular target: T1, Aldo-keto reductase family 1 member C1 (Homo sapiens); experiment: Competitive inhibition of human recombinant GST-tagged AKR1C1 expressed in Escherichia coli BL21 at 17.4 uM by Lineweaver-Burke plot analysis
[9] = molecular target: T1, Aldo-keto reductase family 1 member C1 (Homo sapiens); experiment: Competitive inhibition of human recombinant GST-tagged AKR1C1 expressed in Escherichia coli BL21 at 72.5 uM by Lineweaver-Burke plot analysis
[10] = molecular target: T1, Aldo-keto reductase family 1 member C1 (Homo sapiens); experiment: Competitive inhibition of human recombinant GST-tagged AKR1C1 expressed in Escherichia coli BL21 at 36.2 uM by Lineweaver-Burke plot analysis

Compound	inhibition [1] [%]	inhibition [3]	other results
O=C(O)C1(c2ccccc2)CCCC1	53.5	5.8%	IC50 [2]: 72.9 µM; Ki [2]: 35.8 µM
Cc1ccc(S(=O)(=O)N2C3CCCC32)cc1 (stereo unspecified)	2.1	2.7%	–
CCOC1CCC/C1=C\c1ccc(Cl)cc1 (stereo unspecified)	52.9	83.9%	IC50 [2]: 62.1 µM; Ki [2]: 30.5 µM; IC50 [4]: 22.5 µM; Ki [4]: 20.5 µM
O[C@@H]1CCC[C@H]1Nc1ccccc1 (relative stereo)	14.7	inactive	–
OC1C(Cc2ccccc2)CCC1Cc1ccccc1 (stereo unspecified)	–	–	solubility [5]: Insoluble; inhibition [6]: 11.5%; inhibition [7]: 46.6%
O[C@@H]1CCC[C@H]1Cc1ccccc1 (relative stereo)	13.8	inactive	–
O[C@H]1CCC[C@H]1Cc1ccccc1 (relative stereo)	9.7	inactive	–
Cc1ccc(S(=O)(=O)N[C@@H]2CCC[C@H]2C(=O)O)cc1 (relative stereo)	26.1	inactive	–
OC1CCCC1(Cc1ccccc1)Cc1ccccc1 (stereo unspecified)	–	–	solubility [5]: Insoluble; inhibition [6]: 15.9%; inhibition [7]: 67.3%
Cc1ccc(S(=O)(=O)N[C@@H]2CCC[C@H]2C(N)=O)cc1 (relative stereo)	12.9	inactive	–
Cc1ccc(S(=O)(=O)N[C@@H]2CCC[C@H]2C#N)cc1 (relative stereo)	15.9	inactive	–
O=C(O)C1CCC(c2ccccc2)C1 (stereo unspecified)	55.4	52.7%	IC50 [2]: 98.6 µM; Ki [2]: 48.5 µM; IC50 [4]: 76.6 µM; Ki [4]: 69.6 µM
Cc1ccc(S(=O)(=O)N[C@@H]2CCC[C@H]2Br)cc1 (relative stereo)	20.3	9.2%	–
COC1CCC/C1=C\c1ccc(Cl)cc1 (stereo unspecified)	40.1	87.4%	IC50 [4]: 17.8 µM; Ki [4]: 16.2 µM
O=C1CCC/C1=C\c1ccc(Cl)cc1	77.8	88.8%	Activity [8]: Active; IC50 [2]: 35 µM; Ki [2]: 17.2 µM; Activity [9]: Active; Activity [10]: Active; IC50 [4]: 36.7 µM; Ki [4]: 33.4 µM
